Data reported in publication PMC5540273, “Progress towards a public chemogenomic set for protein kinases and a call for contributions” (PLoS ONE, 2017).

Columns and labels:
Assay in all cases: KINOMEscan competition binding
FLT3 = target: T1, FLT3 (Homo sapiens, UniProt P36888); settings: read-out: %Inh FLT3
T1 sequence (P36888 27-993): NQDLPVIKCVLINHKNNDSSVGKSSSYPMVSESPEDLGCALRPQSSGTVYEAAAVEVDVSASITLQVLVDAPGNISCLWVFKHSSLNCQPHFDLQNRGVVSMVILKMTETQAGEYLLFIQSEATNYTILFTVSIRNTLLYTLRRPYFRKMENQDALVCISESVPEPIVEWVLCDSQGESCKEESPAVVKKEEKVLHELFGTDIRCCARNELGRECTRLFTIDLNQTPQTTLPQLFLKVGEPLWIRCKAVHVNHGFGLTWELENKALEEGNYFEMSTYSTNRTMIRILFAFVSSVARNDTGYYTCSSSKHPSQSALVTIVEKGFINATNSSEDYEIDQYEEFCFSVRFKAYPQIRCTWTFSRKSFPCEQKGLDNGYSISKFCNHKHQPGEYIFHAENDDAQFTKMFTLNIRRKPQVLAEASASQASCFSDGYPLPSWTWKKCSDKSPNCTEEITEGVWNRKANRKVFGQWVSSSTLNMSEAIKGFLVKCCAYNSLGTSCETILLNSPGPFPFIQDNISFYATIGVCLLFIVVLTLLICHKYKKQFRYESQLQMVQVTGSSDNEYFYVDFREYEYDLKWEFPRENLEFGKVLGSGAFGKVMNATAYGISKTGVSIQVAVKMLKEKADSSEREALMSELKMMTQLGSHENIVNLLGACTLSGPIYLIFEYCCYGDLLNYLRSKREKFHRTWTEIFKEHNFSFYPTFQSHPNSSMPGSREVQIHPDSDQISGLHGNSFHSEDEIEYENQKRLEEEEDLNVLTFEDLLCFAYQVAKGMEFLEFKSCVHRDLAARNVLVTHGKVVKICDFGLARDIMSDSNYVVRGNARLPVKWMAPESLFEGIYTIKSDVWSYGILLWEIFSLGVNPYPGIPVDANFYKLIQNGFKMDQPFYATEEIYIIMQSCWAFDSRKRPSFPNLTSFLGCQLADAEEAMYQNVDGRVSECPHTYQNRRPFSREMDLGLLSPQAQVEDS

AURKB = AURKB (Homo sapiens, UniProt Q96GD4); settings: read-out: %Inh AURKB
LTK = LTK (Homo sapiens, UniProt P29376); settings: read-out: %Inh LTK
ACVR2A = ACVR2A (Homo sapiens, UniProt P27037); settings: read-out: %Inh ACVR2A
FLT4 = FLT4 (Homo sapiens, UniProt P35916); settings: read-out: %Inh FLT4
AMPK-alpha1 = AMPK-alpha1 (Homo sapiens, UniProt Q13131); settings: read-out: %Inh AMPK-alpha1
LATS1 = target: T2, LATS1 (Homo sapiens, UniProt O95835); settings: read-out: %Inh LATS1
T2 sequence (O95835 1-1130): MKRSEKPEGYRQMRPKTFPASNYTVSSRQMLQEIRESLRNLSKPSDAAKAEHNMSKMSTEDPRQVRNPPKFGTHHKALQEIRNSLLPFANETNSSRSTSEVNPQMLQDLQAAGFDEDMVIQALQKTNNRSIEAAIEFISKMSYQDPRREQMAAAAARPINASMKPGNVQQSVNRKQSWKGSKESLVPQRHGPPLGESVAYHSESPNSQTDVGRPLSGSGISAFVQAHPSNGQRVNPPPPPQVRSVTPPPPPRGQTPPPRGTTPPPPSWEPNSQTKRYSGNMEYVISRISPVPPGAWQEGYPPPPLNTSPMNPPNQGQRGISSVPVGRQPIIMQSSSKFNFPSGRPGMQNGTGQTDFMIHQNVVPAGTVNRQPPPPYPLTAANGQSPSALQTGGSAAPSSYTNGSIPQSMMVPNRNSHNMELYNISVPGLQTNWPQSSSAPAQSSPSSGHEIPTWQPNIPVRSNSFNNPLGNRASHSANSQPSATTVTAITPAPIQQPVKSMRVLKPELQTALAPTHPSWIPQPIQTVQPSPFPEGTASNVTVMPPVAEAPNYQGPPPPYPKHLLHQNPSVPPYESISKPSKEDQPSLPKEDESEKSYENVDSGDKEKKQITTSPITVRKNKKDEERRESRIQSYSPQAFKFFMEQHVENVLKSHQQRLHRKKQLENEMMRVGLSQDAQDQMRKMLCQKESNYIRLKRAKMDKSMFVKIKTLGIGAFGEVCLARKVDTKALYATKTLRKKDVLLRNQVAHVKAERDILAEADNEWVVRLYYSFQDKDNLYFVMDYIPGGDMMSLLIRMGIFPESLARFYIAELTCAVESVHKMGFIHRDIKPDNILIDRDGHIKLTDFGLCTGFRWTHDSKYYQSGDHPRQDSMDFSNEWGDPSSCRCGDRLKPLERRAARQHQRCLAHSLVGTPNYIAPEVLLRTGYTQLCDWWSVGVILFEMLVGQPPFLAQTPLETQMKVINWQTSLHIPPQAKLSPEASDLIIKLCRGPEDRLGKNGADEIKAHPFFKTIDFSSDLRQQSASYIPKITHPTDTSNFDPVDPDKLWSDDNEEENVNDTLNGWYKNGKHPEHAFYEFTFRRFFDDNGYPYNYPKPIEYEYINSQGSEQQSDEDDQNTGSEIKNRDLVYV

AAK1 = AAK1 (Homo sapiens, UniProt Q2M2I8); settings: read-out: %Inh AAK1
BIKE = BIKE (Homo sapiens, UniProt Q9NSY1); settings: read-out: %Inh BIKE
BIKE, sequence (Q9NSY1 whole entry): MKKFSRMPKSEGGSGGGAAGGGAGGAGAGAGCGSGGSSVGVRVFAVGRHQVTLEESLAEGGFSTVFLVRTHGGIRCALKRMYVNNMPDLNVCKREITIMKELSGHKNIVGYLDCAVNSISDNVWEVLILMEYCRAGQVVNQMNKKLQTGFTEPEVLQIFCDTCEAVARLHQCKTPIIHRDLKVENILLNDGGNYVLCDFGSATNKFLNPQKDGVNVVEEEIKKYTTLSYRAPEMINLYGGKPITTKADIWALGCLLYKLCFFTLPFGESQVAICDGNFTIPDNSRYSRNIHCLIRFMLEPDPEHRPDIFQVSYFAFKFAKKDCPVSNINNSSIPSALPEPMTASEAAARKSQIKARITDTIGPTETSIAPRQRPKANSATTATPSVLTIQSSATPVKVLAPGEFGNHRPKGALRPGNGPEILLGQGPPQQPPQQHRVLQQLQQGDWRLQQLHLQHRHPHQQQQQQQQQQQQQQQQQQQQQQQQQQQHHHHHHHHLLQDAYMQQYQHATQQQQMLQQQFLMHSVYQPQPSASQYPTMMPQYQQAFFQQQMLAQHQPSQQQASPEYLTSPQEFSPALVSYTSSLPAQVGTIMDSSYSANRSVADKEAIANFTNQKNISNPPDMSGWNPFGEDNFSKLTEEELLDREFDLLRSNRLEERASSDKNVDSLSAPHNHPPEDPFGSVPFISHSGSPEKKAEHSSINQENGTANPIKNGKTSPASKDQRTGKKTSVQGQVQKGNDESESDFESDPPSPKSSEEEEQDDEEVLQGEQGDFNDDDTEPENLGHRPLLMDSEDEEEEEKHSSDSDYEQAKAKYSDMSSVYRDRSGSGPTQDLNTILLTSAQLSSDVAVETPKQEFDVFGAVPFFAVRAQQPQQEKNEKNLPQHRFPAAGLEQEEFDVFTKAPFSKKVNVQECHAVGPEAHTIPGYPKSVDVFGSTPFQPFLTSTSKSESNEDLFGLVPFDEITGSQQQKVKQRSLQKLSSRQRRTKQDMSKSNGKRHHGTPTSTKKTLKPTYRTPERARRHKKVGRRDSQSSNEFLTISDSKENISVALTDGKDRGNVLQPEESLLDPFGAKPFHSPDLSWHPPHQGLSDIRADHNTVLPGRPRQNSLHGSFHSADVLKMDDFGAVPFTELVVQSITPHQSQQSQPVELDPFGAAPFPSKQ

AAK1, sequence (Q2M2I8 whole entry): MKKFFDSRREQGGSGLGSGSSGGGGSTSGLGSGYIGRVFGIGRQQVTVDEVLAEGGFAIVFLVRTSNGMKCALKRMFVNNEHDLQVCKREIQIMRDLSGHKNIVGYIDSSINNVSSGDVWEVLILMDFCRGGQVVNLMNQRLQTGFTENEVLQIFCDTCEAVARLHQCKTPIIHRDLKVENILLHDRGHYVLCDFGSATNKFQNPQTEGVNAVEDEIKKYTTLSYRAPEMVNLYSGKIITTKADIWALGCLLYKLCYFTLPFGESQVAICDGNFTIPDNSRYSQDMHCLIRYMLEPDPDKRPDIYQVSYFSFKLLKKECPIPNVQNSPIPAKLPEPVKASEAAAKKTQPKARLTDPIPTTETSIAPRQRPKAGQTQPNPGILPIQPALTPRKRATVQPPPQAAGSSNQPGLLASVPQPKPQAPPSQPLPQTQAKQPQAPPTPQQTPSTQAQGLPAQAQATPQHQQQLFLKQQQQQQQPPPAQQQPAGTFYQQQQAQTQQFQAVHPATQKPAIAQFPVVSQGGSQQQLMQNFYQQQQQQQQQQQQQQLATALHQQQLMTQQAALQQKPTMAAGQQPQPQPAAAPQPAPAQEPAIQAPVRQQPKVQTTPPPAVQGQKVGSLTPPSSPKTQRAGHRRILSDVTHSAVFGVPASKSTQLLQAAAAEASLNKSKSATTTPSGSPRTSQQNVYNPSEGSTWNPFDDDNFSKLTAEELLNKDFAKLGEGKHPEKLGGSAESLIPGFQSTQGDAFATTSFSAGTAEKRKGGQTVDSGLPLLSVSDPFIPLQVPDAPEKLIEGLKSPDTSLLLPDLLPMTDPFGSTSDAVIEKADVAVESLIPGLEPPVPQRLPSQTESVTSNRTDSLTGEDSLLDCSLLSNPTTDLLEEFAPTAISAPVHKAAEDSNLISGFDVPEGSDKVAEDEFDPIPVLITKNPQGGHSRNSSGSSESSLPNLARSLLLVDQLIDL
ACVR2A, sequence (P27037 20-513): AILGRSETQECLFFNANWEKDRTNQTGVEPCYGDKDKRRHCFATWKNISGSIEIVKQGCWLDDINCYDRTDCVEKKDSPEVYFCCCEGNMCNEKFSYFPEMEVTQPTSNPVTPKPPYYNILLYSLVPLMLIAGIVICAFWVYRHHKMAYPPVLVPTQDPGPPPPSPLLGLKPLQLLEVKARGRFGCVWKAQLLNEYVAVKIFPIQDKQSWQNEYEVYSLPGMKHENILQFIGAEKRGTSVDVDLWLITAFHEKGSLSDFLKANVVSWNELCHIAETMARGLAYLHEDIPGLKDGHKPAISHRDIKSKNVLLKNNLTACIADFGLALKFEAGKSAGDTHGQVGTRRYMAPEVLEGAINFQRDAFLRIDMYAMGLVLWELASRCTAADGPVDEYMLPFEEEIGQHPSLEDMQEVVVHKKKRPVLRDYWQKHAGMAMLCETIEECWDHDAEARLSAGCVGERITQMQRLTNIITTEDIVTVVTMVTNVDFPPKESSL
FLT4, sequence (P35916 25-1363): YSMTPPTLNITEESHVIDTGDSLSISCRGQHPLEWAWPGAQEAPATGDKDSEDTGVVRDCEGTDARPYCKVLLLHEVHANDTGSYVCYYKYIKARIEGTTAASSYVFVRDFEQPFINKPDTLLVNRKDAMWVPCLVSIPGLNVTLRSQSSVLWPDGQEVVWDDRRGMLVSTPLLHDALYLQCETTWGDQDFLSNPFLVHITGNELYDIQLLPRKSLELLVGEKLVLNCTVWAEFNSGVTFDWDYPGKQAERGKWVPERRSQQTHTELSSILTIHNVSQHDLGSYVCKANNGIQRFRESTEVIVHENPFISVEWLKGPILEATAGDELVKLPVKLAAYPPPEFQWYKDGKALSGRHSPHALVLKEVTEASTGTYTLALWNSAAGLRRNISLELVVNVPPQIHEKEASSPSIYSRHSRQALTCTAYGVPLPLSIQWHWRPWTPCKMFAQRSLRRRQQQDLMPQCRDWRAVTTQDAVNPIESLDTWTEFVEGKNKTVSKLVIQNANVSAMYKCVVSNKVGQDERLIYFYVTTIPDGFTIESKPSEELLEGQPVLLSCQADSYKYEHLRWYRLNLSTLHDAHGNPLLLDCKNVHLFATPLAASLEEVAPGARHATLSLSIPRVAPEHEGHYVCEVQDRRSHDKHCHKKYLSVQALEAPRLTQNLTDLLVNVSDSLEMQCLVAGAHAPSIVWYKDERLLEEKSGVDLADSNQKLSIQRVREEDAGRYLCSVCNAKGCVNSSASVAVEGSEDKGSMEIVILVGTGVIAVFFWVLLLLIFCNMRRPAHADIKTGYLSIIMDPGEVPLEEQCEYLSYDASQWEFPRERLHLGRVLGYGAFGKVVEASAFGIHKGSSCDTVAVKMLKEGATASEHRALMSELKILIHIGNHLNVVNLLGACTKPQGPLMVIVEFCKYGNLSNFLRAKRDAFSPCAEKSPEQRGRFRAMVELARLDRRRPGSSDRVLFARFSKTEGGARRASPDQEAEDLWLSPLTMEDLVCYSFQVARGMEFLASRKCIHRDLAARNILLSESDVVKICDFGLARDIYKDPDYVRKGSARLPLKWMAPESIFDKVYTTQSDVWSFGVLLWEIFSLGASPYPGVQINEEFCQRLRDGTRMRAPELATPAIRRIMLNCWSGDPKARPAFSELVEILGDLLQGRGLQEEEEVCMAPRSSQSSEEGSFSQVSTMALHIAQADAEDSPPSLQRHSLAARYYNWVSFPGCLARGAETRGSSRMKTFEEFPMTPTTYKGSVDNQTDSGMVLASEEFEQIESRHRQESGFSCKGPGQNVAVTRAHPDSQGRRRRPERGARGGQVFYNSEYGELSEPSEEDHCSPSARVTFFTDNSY
AMPK-alpha1, sequence (Q13131 whole entry): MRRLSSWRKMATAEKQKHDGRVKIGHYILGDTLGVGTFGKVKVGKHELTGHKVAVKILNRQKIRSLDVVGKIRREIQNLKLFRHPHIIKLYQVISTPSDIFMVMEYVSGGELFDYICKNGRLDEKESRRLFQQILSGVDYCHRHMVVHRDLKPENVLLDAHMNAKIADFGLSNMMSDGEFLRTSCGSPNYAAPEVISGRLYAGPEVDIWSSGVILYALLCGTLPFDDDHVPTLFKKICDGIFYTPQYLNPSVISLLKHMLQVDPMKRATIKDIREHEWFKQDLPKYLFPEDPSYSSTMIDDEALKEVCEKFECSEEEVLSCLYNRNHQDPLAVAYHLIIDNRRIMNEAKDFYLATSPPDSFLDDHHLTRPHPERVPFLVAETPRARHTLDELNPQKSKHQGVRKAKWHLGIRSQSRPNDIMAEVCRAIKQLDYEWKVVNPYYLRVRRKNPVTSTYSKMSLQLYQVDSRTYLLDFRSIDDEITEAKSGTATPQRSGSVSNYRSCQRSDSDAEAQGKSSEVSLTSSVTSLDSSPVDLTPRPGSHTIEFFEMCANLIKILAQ
AURKB, sequence (Q96GD4 whole entry): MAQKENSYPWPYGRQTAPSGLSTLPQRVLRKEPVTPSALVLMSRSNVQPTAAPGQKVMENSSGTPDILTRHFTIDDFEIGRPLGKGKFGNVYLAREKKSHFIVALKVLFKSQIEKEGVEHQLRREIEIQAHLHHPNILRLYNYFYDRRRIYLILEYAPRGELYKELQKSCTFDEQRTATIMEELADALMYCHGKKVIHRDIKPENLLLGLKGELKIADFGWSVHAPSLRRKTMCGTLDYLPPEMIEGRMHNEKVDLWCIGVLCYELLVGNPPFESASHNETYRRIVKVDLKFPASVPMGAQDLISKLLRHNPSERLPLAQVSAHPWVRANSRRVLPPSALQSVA

Row | Structure (SMILES) | inhibition at 1 µM (FLT3) | inhibition at 1 µM (AURKB) | inhibition at 1 µM (LTK) | inhibition at 1 µM (ACVR2A) | inhibition at 1 µM (FLT4) | inhibition at 1 µM (AMPK-alpha1) | inhibition at 1 µM (LATS1) | inhibition at 1 µM (AAK1) | inhibition at 1 µM (BIKE)
1 | Cn1cc(-c2cnc(N)c3c(-c4ccc5c(c4)CCN5C(=O)Cc4ccccc4)csc23)cn1 [UNC10225012A] | 99% | 97.8% | 0% | 0% | 31% | 17% | 1% | 0% | 0%
2 | O=c1cc(N2CCOCC2)nc2n(Cc3cccc(Cl)c3Cl)c(C3CC3)nn12 [UNC10225469A] | 10% | 4% | 0% | 0% | 10% | 5% | 0% | 14% | 0%
3 | COc1cccc(OC)c1C(=O)Nc1cccc(-c2nn3ccccc3c2-c2ccnc(Nc3cccc(F)c3)n2)c1 [UNC10225310A] | 49% | 0% | 13% | 7% | 27% | 25% | 6% | 0% | 0%
4 | CS(=O)(=O)Cc1ccc(Nc2nccc(-c3c(-c4cccc(NC(=O)C5CCCCC5)c4)nn4ncccc34)n2)cc1 [UNC10225159A] | 88% | 15% | 0% | 0% | 52% | 2% | 0% | 0% | 1%
5 | Cc1ccc(NC(=O)Nc2cccc(C(F)(F)F)c2)cc1 [UNC10225187A] | 59% | 0% | 0% | 2% | 12% | 0% | 0% | 26% | 4%
